Patent publication EP0906100B1, “USE OF 5-HT 1A? RECEPTOR ANTAGONISTS FOR THE TREATMENT OF URINARY INCONTINENCE” (RECORDATI S.A., priority 1996, dated 1997)
Where two headings read alike, the source gives them in different places. Values belong to the compound of their own block, whether it stands above or below them.

Legend:
[1] = system: cystometric parameters (bladder volume capacity, micturition pressure); assay: Cystometric parameters (BVC, MP) in the conscious rat; format: in vivo, rats; settings: for BVC before treatment / MP before treatment: baseline; for BVC before treatment / MP before treatment / BVC after treatment / MP after treatment: mean±S.E.; for ED50: Rattus norvegicus, read-out: approximate ED50 value, reduction of MP
Method: Male Sprague Dawley rats (Crl: CD° BR) weighing 250-350 g were used. The animals were housed with free access to food and water and maintained on a forced 12 h alternating light-dark cycle at 22-24°C for at least one week, except during performance of the experiment.
An approximately 10 mm long midline incision was made in the shaved and cleaned abdominal wall. The urinary bladder was gently freed from adhering tissues, emptied, and then cannulated, via an incision at the dome, with a polyethylene cannula (Portex PP30), which was permanently sutured with silk thread. The cannula was exteriorized through a subcutaneous tunnel in the retroscapular area, where it was connected with a plastic adapter to avoid the risk of removal by the animal. For intravenous (i.v.) injection of test compounds, a PE 50 polyethylene tubing filled with physiological saline was inserted into the jugular vein and exteriorized in the retroscapular area.
Since cystometrographic parameters have been reported to be influenced by the time elapsed after catheter implantation […].
On the day of the experiment, the rats were placed in Bollman's cages; after a stabilization period of 20 min, the free tip of the bladder catheter was connected through a T-shaped tube to a pressure transducer (Bentley T 800/Marb P 82) and to a peristaltic pump (Gilson minipuls 2) for a continuous infusion, at the constant rate of 0.1 ml/min, of saline solution into the urinary bladder. The intraluminal pressure signal during infusion was continuously recorded on a polygraph (Battaglia Rangoni KO 380 with ADC1/T amplifier). Two urodynamic parameters were evaluated: bladder volume capacity (BVC) and micturition pressure (MP). BVC (in ml) is defined as the minimum volume infused after which detrusor contraction (followed by micturition) occurs. MP (in mmHg) is defined as the maximal intravesical pressure induced by the contraction of detrusor during micturition. Basal BVC and MP values were calculated as the means of the first two recorded cystometrograms. At this point, the infusion was interrupted and the test compounds were administered. Fifteen minutes after intravenous administration, or one hour after oral drug administration, two additional cystometrograms were recorded in each animal and the mean values of the two cystometrographic parameters were calculated.
The statistical significance of the differences in urodynamic parameter values was evaluated by Student's t test for paired data. Only changes showing a probability P<0.01 were considered to be significant.

[2] = molecular target: T1, 5-HT1A receptor (Rattus norvegicus, UniProt P19327); assay: [3H]8-OH-DPAT binding (5HT1A receptors), rat hippocampi; settings: 1 nM [3H]8-OH-DPAT, read-out: Binding affinity for the 5-HT1A receptor, Ki
T1 construct: Rat hippocampi were homogenized in 50 volumes of ice-cold 50 mM Tris-HCl pH 7.4; from tissue; host or cells: rat hippocampus membranes
T1 sequence (P19327 1-422): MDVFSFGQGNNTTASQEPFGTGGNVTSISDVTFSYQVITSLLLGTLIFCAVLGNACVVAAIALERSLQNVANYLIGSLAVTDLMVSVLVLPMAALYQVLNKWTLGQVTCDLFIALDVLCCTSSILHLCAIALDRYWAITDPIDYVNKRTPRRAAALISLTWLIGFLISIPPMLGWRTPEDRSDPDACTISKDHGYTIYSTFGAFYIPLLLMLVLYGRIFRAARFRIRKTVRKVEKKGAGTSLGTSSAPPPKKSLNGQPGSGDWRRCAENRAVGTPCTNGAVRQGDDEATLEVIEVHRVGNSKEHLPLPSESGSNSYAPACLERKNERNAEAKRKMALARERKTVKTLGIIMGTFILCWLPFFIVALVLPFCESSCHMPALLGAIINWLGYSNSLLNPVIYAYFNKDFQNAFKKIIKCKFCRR
Method: [^3H]8-OH-DPAT binding (5HT1A receptors):
Rat hippocampi were homogenized in 50 volumes of ice-cold 50 mM Tris-HCl pH 7.4. The homogenates were centrifuged at 48,000 x g for 10 minutes, and the pellets were resuspended in the same volume of ice-cold buffer, incubated for 10 minutes at 37°C, centrifuged and resuspended two more times. The final pellets obtained were resuspended in 100 volumes of 50 mM Tris-HCl, pH 7.4, containing 0.1 % ascorbic acid and 10 µM pargyline. 1 ml samples were incubated for 30 min at 25°C with 1 nM [^3H]8-OH-DPAT, in absence or presence of different concentrations (10^-5 to 10^-10 M) of the test compound. Non-specific binding was determined in the presence of 10 µM 5-HT. The incubations were terminated by rapid filtration through Whatman GF/B filters using a Brandel cell harvester, after which the filters were washed with 3 x 3 ml of ice-cold buffer. The radioactivity retained on the filters was determined by liquid scintillation counting.

[3] = system: pre-synaptic 5-HT1A receptor; assay: Antagonism of hypothermia induced by 8-OH-DPAT in mice; format: in vivo; settings: s.c., hypothermia induced by 0.5 mg/kg s.c. 8-OH-DPAT
Method: Antagonism of hypothermia induced by 8-OH-DPAT in mice:
The antagonistic effect of 5-HT1A receptor antagonists on hypothermia induced by 8-OH-DPAT was evaluated by the method of Moser (Moser, Eur. J. Pharmacol., 193, 165, 1991) with minor modifications.
Male CD-1 mice (28-38 g) obtained from Charles River (Italy) were housed in a climate-controlled room (temperature 22 ± 2°C; humidity 55 ± 15%) and maintained on a 12 h light/dark cycle with free access to food and water. On the day of experiment, mice were placed singly in clear plastic boxes under the same ambient conditions. Body temperature was measured by the insertion of a temperature probe (Termist TM-S, LSI) into the rectum to a depth of 2 cm. Rectal temperature was measured immediately prior to subcutaneous injection of the test compound and 30 min later. All animals then received 8-OH-DPAT (0.5 mg/kg s.c.) and their temperature was measured 30 min later. For each animal, temperature changes were calculated with respect to pretreatment values and the mean values were calculated for each treatment group.

[4] = 100 µg/kg i.v., 15 min after injection
[5] = 300 µg/kg i.v., 15 min after injection
[6] = 1000 µg/kg i.v., 15 min after injection
[7] = 1 mg/kg p.o., 1 hour after oral administration
[8] = 2000 µg/kg i.v., 15 min after injection
[9] = 3 mg/kg p.o., 1 hour after oral administration
[10] = 10 mg/kg p.o., 1 hour after oral administration
[11] = conscious rats, i.v., NAN-190 up to the highest administrable dose of 300 µg/kg

Structure (SMILES): COc1ccccc1N1CCN(CCN(C(=O)C2CCCCC2)c2ccccn2)CC1 [Compound A, N-{2-[4-(2-methoxyphenyl)-1-piperazinyl]-ethyl}-N-(2-pyridyl)-cyclohexanecarboxamide]
BVC before treatment ([1]; 100 µg/kg i.v. group): 0.65 ± 0.06 mL | MP before treatment ([1]; 100 µg/kg i.v. group): 93.0±8.3 mmHg | BVC % change [1, 4]: +4% | MP % change [1, 4]: -10% | BVC after treatment [1, 4]: 0.66 ± 0.08 mL | MP after treatment [1, 4]: 83.8±8.7 mmHg | BVC before treatment ([1]; 300 µg/kg i.v. group): 0.47 ± 0.05 mL | MP before treatment ([1]; 300 µg/kg i.v. group): 78.7±5.8 mmHg | BVC % change [1, 5]: +32% | MP % change [1, 5]: -11% | BVC after treatment [1, 5]: 0.63 ± 0.06 mL | MP after treatment [1, 5]: 70.0±4.1 mmHg | BVC before treatment ([1]; 1000 µg/kg i.v. group): 0.64 ± 0.05 mL | MP before treatment ([1]; 1000 µg/kg i.v. group): 104.6±6.4 mmHg | BVC % change [1, 6]: +29% | MP % change [1, 6]: -13% | BVC after treatment [1, 6]: 0.83 ± 0.07 mL | MP after treatment [1, 6]: 91.0±6.3 mmHg | BVC before treatment ([1]; 1 mg/kg p.o. group): 0.52 ± 0.07 mL | MP before treatment ([1]; 1 mg/kg p.o. group): 96.0±8.4 mmHg | MP % change [1, 7]: -2% | BVC after treatment [1, 7]: 0.60 ± 0.08 mL | MP after treatment [1, 7]: 93.7±7.2 mmHg | BVC before treatment ([1]; 2000 µg/kg i.v. group): 0.48 ± 0.04 mL | MP before treatment ([1]; 2000 µg/kg i.v. group): 101.8±10.9 mmHg | BVC % change [1, 8]: +32% | MP % change [1, 8]: -20% | BVC after treatment [1, 8]: 0.63 ± 0.05 mL | MP after treatment [1, 8]: 81.5±14.1 mmHg | BVC before treatment ([1]; 3 mg/kg p.o. group): 0.67 ± 0.07 mL | MP before treatment ([1]; 3 mg/kg p.o. group): 112.5±6.5 mmHg | BVC % change [1, 9]: +35% | MP % change [1, 9]: -4% | BVC after treatment [1, 9]: 0.91 ± 0.10 mL | MP after treatment [1, 9]: 107.6±9.2 mmHg | BVC before treatment ([1]; 10 mg/kg p.o. group): 0.54 ± 0.06 mL | MP before treatment ([1]; 10 mg/kg p.o. group): 90.2±7.1 mmHg | BVC % change [1, 10]: +37% | MP % change [1, 10]: -4% | BVC after treatment [1, 10]: 0.73 ± 0.10 mL | MP after treatment [1, 10]: 86.6±7.6 mmHg | effect on MP (in words) [1, 11]: inactive

Structure (SMILES): CCN(CC)CC#CCOC(=O)C(O)(c1ccccc1)C1CCCCC1 (centres unmarked) [Oxybutynin, oxybutynin]
BVC before treatment ([1]; 100 µg/kg i.v. group): 0.82 ± 0.15 mL | MP before treatment ([1]; 100 µg/kg i.v. group): 95.2±9.2 mmHg | BVC % change [1, 4]: +9% | MP % change [1, 4]: -19% | BVC after treatment [1, 4]: 0.89 ± 0.18 mL | MP after treatment [1, 4]: 77.4±10.3 mmHg | BVC before treatment ([1]; 300 µg/kg i.v. group): 0.83 ± 0.13 mL | MP before treatment ([1]; 300 µg/kg i.v. group): 82.3±8.7 mmHg | BVC % change [1, 5]: 0% | MP % change [1, 5]: -39% | BVC after treatment [1, 5]: 0.83 ± 0.12 mL | MP after treatment [1, 5]: 50.5±6.3 mmHg | BVC before treatment ([1]; 1000 µg/kg i.v. group): 0.94 ± 0.19 mL | MP before treatment ([1]; 1000 µg/kg i.v. group): 110.9±10.2 mmHg | BVC % change [1, 6]: +7% | MP % change [1, 6]: -73% | BVC after treatment [1, 6]: 1.00 ± 0.18 mL | MP after treatment [1, 6]: 29.6±5.6 mmHg | BVC before treatment ([1]; 1 mg/kg p.o. group): 0.56 ± 0.11 mL | MP before treatment ([1]; 1 mg/kg p.o. group): 92.1±13.3 mmHg | BVC % change [1, 7]: +31% | MP % change [1, 7]: -16% | BVC after treatment [1, 7]: 0.74 ± 0.11 mL | MP after treatment [1, 7]: 77.3±9.8 mmHg | BVC before treatment ([1]; 3 mg/kg p.o. group): 0.54 ± 0.07 mL | MP before treatment ([1]; 3 mg/kg p.o. group): 82.1±5.1 mmHg | BVC % change [1, 9]: +18% | MP % change [1, 9]: -49% | BVC after treatment [1, 9]: 0.63 ± 0.13 mL | MP after treatment [1, 9]: 42.1±5.1 mmHg | BVC before treatment ([1]; 10 mg/kg p.o. group): 0.55 ± 0.08 mL | MP before treatment ([1]; 10 mg/kg p.o. group): 98.3±9.0 mmHg | BVC % change [1, 10]: +27% | MP % change [1, 10]: -68% | BVC after treatment [1, 10]: 0.70 ± 0.11 mL | MP after treatment [1, 10]: 31.8±3.9 mmHg | ED50 ([1]; iv, conscious rats, i.v.): ~0.4 mg/kg | ED50 ([1]; conscious rats, oral administration): ~4 mg/kg | effect on BVC (in words) [1, 11]: inactive

Ki [2]: 0.13 nM
Structure (SMILES): O=C(C1CCCCC1)N(CCN1CCN(c2cccc3[nH]ccc23)CC1)c1ccccn1 [Compound B, N-{2-[4-(4-Indolyl)-1-piperazinyl]-ethyl}-N-(2-pyridyl)-cyclohexanecarboxamide]
ID50 (95%) C.L., antagonistic activity for the pre-synaptic 5-HT1A receptor [3]: 1.9 (1.0-3.7) µg/kg s.c.
